Experimental findings from paper PMC13252604, “First Generation Proteolysis Targeting Chimeras (PROTACs) for the Treatment of Progeria” (Advanced Science, 2026) are described below.

This experiment deals with HGADFN167 cells. Description: RNA-seq global transcriptomic analysis. The class given is cell-based, human. To be noted: HGADFN167, 5 µM, 20 days. The procedure: To establish the broader impact of PROTAC 2 at the molecular level, we performed detailed gene expression and pathway‐centric enrichment analysis. HGADFN167 cells were treated with either vehicle or compound 2 (5 µM) for 20 days before RNA was extracted for RNA‐seq analysis (3 independent biological samples per condition). […] Remarkably, IL6 identification supports the qPCR results previously obtained (Figure 6C). […] In line with these findings, we identified several genes associated with endothelial and blood vessel development (CLDN11 and FOXS1), ECM organization (PTX3, SCUBE3, TINAGL1, and TNFRSF11B), and mesodermal and mesenchymal regulation (MEST, MEDAG, and STC2).
Cells were harvested by trypsin, centrifuged and washed with PBS. Cells pellets were added with 70% (vol/vol) ice-cold ethanol. The mixture was incubated for 15min at 4 °C, centrifuged 2500 rpm, washed with PBS and then re-suspended in 500ul staining buffer (25ug/mL propidium iodide and 100μg/ml DNAse-free RNAse both from Sigma-Aldrich in PBS). The mixture was then allowed to incubate for 30min at 37 °C in the dark and samples were finally analysed by FACScalibur (Becton Dickinson) flow cytometer
11. Transmission electron microscopy.
Cells previously collected in 1.5 mL tube, were washed with PBS and fixed with 2.5% glutaraldehyde and 4% paraformaldehyde in Milloning´s phosphate buffer (41.5 mL 2.26% NaH2PO4·H2O and 8.5 mL 2.52% NaOH both in milliQ water, pH 7.2-7.4) for 4h at 4 °C. […]
Cells were incubated for 1 h in 1% OsO4 at room temperature and then thoroughly washed with milliQ water. […] The samples were analysed and examined in the transmission electron microscope JEM 1010 at 80 […]
Total RNA of HGPS fibroblasts (HGADFN167) and UCM-18142-treated HGPS fibroblasts were extracted for RNA sequencing. The RNA concentration and integrity were assessed using the Tape Station 4150 system (Agilent). […] All raw reads were mapped to the human genome (Grch38) using the software HISAT2. HTSeq was used to calculate Reads Count and transcripts per kilobase per million reads were computed. […]

The structures appear in SMILES notation.

Where the note is “adjusted p<0.01, log2 FC <−1.0”, `CC1(C)Oc2cc3oc(=O)ccc3cc2C[C@@H]1OC(=O)CCCCCNc1cccc2c1C(=O)N(C1CCC(=O)NC1=O)C2=O` (stereo partly drawn) [compound 2] came in with a downregulated genes of 205. The same compound returned an upregulated genes (adjusted p<0.01, log2 FC >1.0) of 83. Moreover, the “differentially expressed genes, treated vs non‐treated” value (adjusted p<0.01, log2 FC >1.0 or <−1.0) was determined as 288.
